Reference: ChEMBL document CHEMBL3044700, “Molecular modeling and protection against pentylenetetrazole-induced seizure of new 1,4-dihydropyridines containing 5(4)-imidazolyl substituent” (Med Chem Res, 2012)
Activity calls are given as the source filed them. The calls are words filed in the database; no cut-off is given here.

test system: Mus musculus; assay: Anticonvulsant activity in Mus musculus NMRI (mouse) assessed as protection against pentylenetetrazole-induced seizures at 5 to 20 mg/kg, ip administered 30 min prior to pentylenetetrazole induction relative to vehicle-treated control; type: functional, organism-based

SMILES | Activity
CCc1nc(C2C(C(=O)OCCc3ccccc3)=C(C)NC(C)=C2C(=O)OCCc2ccccc2)c(Cl)[nH]1 | Active
CCOC(=O)C1=C(C)NC(C)=C(C(=O)OCCc2ccccc2)C1c1nc(CC)[nH]c1Cl (stereo not drawn) | Active
CCc1nc(C2C(C(=O)OCc3ccccc3)=C(C)NC(C)=C2C(=O)OCc2ccccc2)c(Cl)[nH]1 | Active
CC1=C(C(=O)OCCc2ccccc2)C(c2nc[nH]c2Cl)C(C(=O)OCCc2ccccc2)=C(C)N1 | Active
CC1=C(C(=O)OCc2ccccc2)C(c2nc[nH]c2Cl)C(C(=O)OCc2ccccc2)=C(C)N1 | Active
CCc1nc(C2C(C(=O)OC)=C(C)NC(C)=C2C(=O)OCCc2ccccc2)c(Cl)[nH]1 (stereo not drawn) | Active
CC1=C(C(=O)OCCCc2ccccc2)C(c2nc[nH]c2Cl)C(C(=O)OCCCc2ccccc2)=C(C)N1 | Active

test system: Mus musculus; assay: Anticonvulsant activity in Mus musculus NMRI (mouse) assessed as protection against pentylenetetrazole-induced seizures at 20 mg/kg, ip administered 30 min prior to pentylenetetrazole induction relative to vehicle-treated control; type: functional, organism-based; design: dose 20 mg/kg

SMILES | Activity
COC(=O)C1=C(C)NC(C)=C(C(=O)OC)C1c1ccccc1[N+](=O)[O-] | Active
